From US20120078527A1, “KIT AND METHOD FOR PREDICTING SENSITIVITY OF GASTRIC CANCER PATIENT TO ANTI-CANCER AGENT” (SAMSUNG ELECTRONICS CO., LTD., priority 2010, published 2012)

Tested on: advanced (terminal) gastric cancer patients
Test: Change in tumor size after cisplatin-based chemotherapy in gastric cancer patients
Type: in vivo, human
Details: population of 151 advanced (terminal) gastric cancer patients; cisplatin-based chemotherapy per NCCN guidelines after palliative surgical resection; judged by changes in tumor size
Description: A population of 151 advanced (terminal) gastric cancer patients who were treated with cisplatin-based chemotherapy (in Samsung Medical Center, Seoul, Korea) after palliative surgical resection were selected to test for sensitivity to the anti-cancer agent. That is, the anti-cancer agent (cisplatin) was administered to the patients according to National Comprehensive Cancer Network (NCCN) guidelines, and changes in tumor size after the administration of the anti-cancer agent were measured to determine whether the anti-cancer therapy was effective. Then, the patients were grouped into two groups: one group of 103 patients for which the anti-cancer therapy was effective (responders), and the other group of 48 patients for which the anti-cancer therapy was not effective (nonresponders). In addition, to identify SNPs associated with response or nonresponse to the anti-cancer agent, DNA of each of the patients was extracted from gastric tumor tissue removed from the patient using QIAamp DNA Mini and blood Mini kits.

N.N.[Cl][Pt][Cl] [cisplatin]
patients for which the anti-cancer therapy was effective (responders): 103 patients
patients for which the anti-cancer therapy was not effective (nonresponders): 48 patients
